Experimental data reported in article PMC4222986 (Journal of neurochemistry, 2014).
Structures can show the parent of a compound that is named as a salt. Where two headings read alike, the source gives them in different places. Blank lines part the entries; values can stand above or below the compound they belong to.

What was measured:
D2 and D3 receptors = details: humans; ref Tziortzi et al., 2011; Payer et al., 2014a,b; cited from earlier work
D2 dopamine receptor = details: forskolin-dependent adenylyl cyclase; ref Tu et al., 2011a; cited from earlier work
D3 dopamine receptor = details: forskolin-dependent adenylyl cyclase; ref Tu et al., 2011a; cited from earlier work
[1] = target: T1, human D3 dopamine receptors (Homo sapiens, UniProt P35462); assay: [125I]IABN radioligand binding, human D3 receptors stably expressed in HEK cells; details: ratio of Ki values of Table I
[2] = target: T1, human D3 dopamine receptors; assay: competitive radioligand binding with [3H]LS-3-134, hD3 HEK-293
[3] = target: rat D3 dopamine receptors (Rattus norvegicus, UniProt P19020); assay: competitive radioligand binding with [3H]LS-3-134, rD3 HEK-293
rat striatal tissue = rat striatal tissue (Rattus norvegicus, UniProt P19020); assay: competitive radioligand binding with [3H]LS-3-134, rat striatal tissue; details: Ki values [^3H]LS-3-134 rat striatum, mean ± S.E.M., n ≥ 3, Cheng & Prusoff
[4] = target: T1, human D3 dopamine receptors; details: ref Tu et al., 2011a; cited from earlier work
[5] = test system: hD2 and hD3 dopamine receptors expressed in HEK-293 cells; assay: D2 and D3 dopamine receptor combination experiments; format: binding, human; details: radioligand about Kd for hD3, 37°C 30 min, (+)-butaclamol nonspecific
[6] = target: T2, human D2 dopamine receptors (Homo sapiens, UniProt P14416); details: ratio of Ki values of Table I
[7] = target: T2, human D2 dopamine receptors; details: ref Vangveravong et al., 2006; Luedtke et al., 2012; cited from earlier work
[8] = Ki values [^3H]LS-3-134 rD3-HEK 293, mean ± S.E.M., n ≥ 3, Cheng & Prusoff

Chain of rat D3 dopamine receptors (P19020 whole entry): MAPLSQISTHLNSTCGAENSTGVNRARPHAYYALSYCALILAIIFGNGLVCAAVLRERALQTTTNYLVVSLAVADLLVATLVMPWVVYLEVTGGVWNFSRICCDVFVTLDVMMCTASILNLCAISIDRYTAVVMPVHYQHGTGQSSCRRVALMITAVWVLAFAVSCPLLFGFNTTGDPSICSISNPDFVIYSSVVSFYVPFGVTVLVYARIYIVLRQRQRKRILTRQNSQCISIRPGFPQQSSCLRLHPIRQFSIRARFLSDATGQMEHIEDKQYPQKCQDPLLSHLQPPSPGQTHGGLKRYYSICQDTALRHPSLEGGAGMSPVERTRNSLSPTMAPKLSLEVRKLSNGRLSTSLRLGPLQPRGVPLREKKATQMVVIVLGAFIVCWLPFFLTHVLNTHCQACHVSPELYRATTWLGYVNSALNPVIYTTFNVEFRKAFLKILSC
Chain of rat striatal tissue (P19020 whole entry): as above
T1 sequence (P35462 whole entry): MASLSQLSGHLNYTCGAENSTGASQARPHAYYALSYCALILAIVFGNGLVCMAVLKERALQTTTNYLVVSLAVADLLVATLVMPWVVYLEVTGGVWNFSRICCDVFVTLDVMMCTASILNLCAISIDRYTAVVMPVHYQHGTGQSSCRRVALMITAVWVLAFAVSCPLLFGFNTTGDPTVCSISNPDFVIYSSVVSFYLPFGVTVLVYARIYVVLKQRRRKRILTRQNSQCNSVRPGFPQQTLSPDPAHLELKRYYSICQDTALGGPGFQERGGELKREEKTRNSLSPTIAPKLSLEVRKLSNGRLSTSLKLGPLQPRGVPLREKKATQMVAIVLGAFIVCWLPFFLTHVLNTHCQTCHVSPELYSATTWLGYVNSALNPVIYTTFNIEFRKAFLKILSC
T2 sequence (P14416 whole entry): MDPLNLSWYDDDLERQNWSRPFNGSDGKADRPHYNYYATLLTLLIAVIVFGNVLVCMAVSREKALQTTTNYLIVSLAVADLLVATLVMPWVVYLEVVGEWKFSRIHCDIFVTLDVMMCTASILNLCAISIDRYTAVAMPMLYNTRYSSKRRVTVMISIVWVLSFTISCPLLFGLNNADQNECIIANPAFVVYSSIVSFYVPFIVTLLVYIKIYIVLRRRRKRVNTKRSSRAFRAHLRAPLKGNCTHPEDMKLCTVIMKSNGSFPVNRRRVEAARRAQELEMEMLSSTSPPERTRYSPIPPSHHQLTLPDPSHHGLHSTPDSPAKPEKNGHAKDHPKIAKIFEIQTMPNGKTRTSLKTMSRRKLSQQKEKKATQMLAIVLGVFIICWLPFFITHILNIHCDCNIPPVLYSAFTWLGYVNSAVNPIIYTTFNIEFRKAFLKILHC

SMILES: CCCN1CCO[C@@H]2c3cc(O)ccc3CC[C@H]21 [[^11C](+)-PHNO]
- receptors labelled in PET imaging (D2 and D3 receptors): label both D2 and D3 receptors

SMILES: O=C(NCCCCN1CCN(c2ccccc2OCCF)CC1)c1ccc(-c2ccsc2)cc1 [LS-3-134]
- % of full agonist activity at D2 (D2 dopamine receptor): 29%
- % of full agonist activity at D3 (D3 dopamine receptor): 35%

- Binding Selectivity D2:D3 [1]: 43
- Binding Selectivity D4:D3 [1]: 1120
- Ki [2]: 1.25 ± 0.36 nM
- Ki [3]: 5.71 ± 0.81 nM
- Ki (rat striatal tissue): 2.46 ± 0.19 nM
SMILES: COc1ccccc1N1CCN(CCCCNC(=O)c2ccc(N(C)C)cc2)CC1 [WC 10, 4-(dimethylamino)-N-(4-(4-(2-methoxyphenyl)piperazin-1-yl)butyl)benzamide]
- D3 vs. D2 dopamine receptor subtype binding selectivity [4]: 43 fold

SMILES: CCN1CCC[C@H]1CNC(=O)c1c(O)c(Cl)cc(Cl)c1OC (racemic) [[^3H]raclopride]
- specific binding on adding increasing amounts of hD2 membranes to constant hD3 [5]: increased specific binding was observed

SMILES: COc1ccc2[nH]cc(CN3CCC(O)(c4ccc(SC)cc4)CC3)c2c1 [SV 293, 1-((5-methoxy-1H-indol-3-yl)methyl)-4-(4-(methylthio)phenyl)piperidin-4-ol]
- Ki ([2]; Ki values [^3H]LS-3-134 hD3-HEK 293, mean ± S.E.M., n ≥ 3, Cheng & Prusoff): 324 ± 39.2 nM
- Ki [3, 8]: 892 ± 44.2 nM
- Ki (rat striatal tissue): 323 ± 49.1 nM
- Binding Selectivity D3:D2 [6]: 105
- Binding Selectivity D4:D2 [6]: 103
- selectivity for hD2 dopamine receptors compared to hD3 [7]: 100 fold

SMILES: COc1cc([125I])cc(C(=O)NC2CC3CCCC(C2)N3Cc2ccccc2)c1OC (stereo not shown) [[^125I]IABN]
- specific binding on adding increasing amounts of hD2 membranes to constant hD3 [5]: increased specific binding was observed

- Ki [3, 8]: 0.12 ± 0.05 nM
- Ki (rat striatal tissue): 0.37 ± 0.09 nM
SMILES: CCc1cc(Cl)c(OC)c(C(=O)NC[C@@H]2CCCN2CC)c1O [Eticlopride, S-(−)-3-chloro-5-ethyl-N-[(1-ethyl-2-pyrrolidinyl)methyl]-6-hydroxy-2-methoxybenzamide hydrochloride]
